Reference: PMC12155888, “Design, Synthesis, and Antitumor Biological Evaluation of Galaxamide and Its Analogs” (Molecules, 2025)
Where “and” joins values, the source holds several entries; their conditions need not be identical. Equal values may be shown once.

Experiment: head-to-tail macrolactamisation of free linear pentapeptide 10 (H-NMeAA...Leu-OH), PyBOP (2 equiv), DMAP (3 equiv); Route E: peptide solution (4.3 mM in MeCN) added dropwise over 10 h to PyBOP/DMAP in MeCN, further 3 h stirring
Conditions: the molecule shown is the open-chain precursor; 15-membered ring; CH3CN; 1.0 mM; 20.0 °C; 13.0 h

Row | Compound | ring closure, isolated yield [%]
1 | CN[C@H](CC(C)C)C(=O)N[C@H](CC(C)C)C(=O)N[C@H](CC(C)C)C(=O)N(C)[C@H](CC(C)C)C(=O)N[C@H](CC(C)C)C(=O)O [H-D-N(Me)Leu-D-Leu-D-Leu-D-N(Me)Leu-D-Leu-OH] | 48
2 | CN[C@H](CC(C)C)C(=O)N[C@H](CC(C)C)C(=O)N[C@@H](CC(C)C)C(=O)N(C)[C@H](CC(C)C)C(=O)N[C@H](CC(C)C)C(=O)O [H-D-N(Me)Leu-D-Leu-Leu-D-N(Me)Leu-D-Leu-OH] | 50
3 | CN[C@H](CC(C)C)C(=O)N[C@@H](CC(C)C)C(=O)N[C@H](CC(C)C)C(=O)N(C)[C@H](CC(C)C)C(=O)N[C@@H](CC(C)C)C(=O)O [H-D-N(Me)Leu-Leu-D-Leu-D-N(Me)Leu-Leu-OH] | 45
4 | CN[C@H](CC(C)C)C(=O)N[C@@H](CC(C)C)C(=O)N[C@@H](CC(C)C)C(=O)N(C)[C@H](CC(C)C)C(=O)N[C@@H](CC(C)C)C(=O)O [H-D-N(Me)Leu-Leu-Leu-D-N(Me)Leu-Leu-OH] | 48
5 | CN[C@@H](CC(C)C)C(=O)N[C@H](CC(C)C)C(=O)N[C@H](CC(C)C)C(=O)N(C)[C@@H](CC(C)C)C(=O)N[C@H](CC(C)C)C(=O)O [H-N(Me)Leu-D-Leu-D-Leu-N(Me)Leu-D-Leu-OH] | 54
6 | CN[C@@H](CC(C)C)C(=O)N[C@H](CC(C)C)C(=O)N[C@@H](CC(C)C)C(=O)N(C)[C@@H](CC(C)C)C(=O)N[C@H](CC(C)C)C(=O)O [H-N(Me)Leu-D-Leu-Leu-N(Me)Leu-D-Leu-OH] | 45
7 | CN[C@@H](CC(C)C)C(=O)N[C@@H](CC(C)C)C(=O)N[C@H](C)C(=O)N(C)[C@@H](CC(C)C)C(=O)N[C@@H](CC(C)C)C(=O)O [H-N(Me)Leu-Leu-D-Ala-N(Me)Leu-Leu-OH] | 49
8 | CN[C@@H](CC(C)C)C(=O)N[C@@H](CC(C)C)C(=O)N[C@H](CC(=O)OC)C(=O)N(C)[C@@H](CC(C)C)C(=O)N[C@@H](CC(C)C)C(=O)O [H-N(Me)Leu-Leu-D-Asp(OMe)-N(Me)Leu-Leu-OH] | 52
9 | CN[C@@H](CC(C)C)C(=O)N[C@@H](CC(C)C)C(=O)N[C@@H](C(=O)N(C)[C@@H](CC(C)C)C(=O)N[C@@H](CC(C)C)C(=O)O)C1CCCCC1 [H-N(Me)Leu-Leu-D-Chg-N(Me)Leu-Leu-OH] | 51
10 | CN[C@@H](CC(C)C)C(=O)N[C@@H](CC(C)C)C(=O)N[C@H](CC(C)C)C(=O)N(C)[C@@H](CC(C)C)C(=O)N[C@@H](CC(C)C)C(=O)O [H-N(Me)Leu-Leu-D-Leu-N(Me)Leu-Leu-OH] | 45
11 | CN[C@@H](CC(C)C)C(=O)N[C@@H](CC(C)C)C(=O)N[C@H](CCSC)C(=O)N(C)[C@@H](CC(C)C)C(=O)N[C@@H](CC(C)C)C(=O)O [H-N(Me)Leu-Leu-D-Met-N(Me)Leu-Leu-OH] | 52
12 | CN[C@@H](CC(C)C)C(=O)N[C@@H](CC(C)C)C(=O)N[C@H](Cc1ccccc1C)C(=O)N(C)[C@@H](CC(C)C)C(=O)N[C@@H](CC(C)C)C(=O)O [H-N(Me)Leu-Leu-D-Phe(2-Me)-N(Me)Leu-Leu-OH] | 53
13 | CN[C@@H](CC(C)C)C(=O)N[C@@H](CC(C)C)C(=O)N[C@H](Cc1cccc(F)c1)C(=O)N(C)[C@@H](CC(C)C)C(=O)N[C@@H](CC(C)C)C(=O)O [H-N(Me)Leu-Leu-D-Phe(3-F)-N(Me)Leu-Leu-OH] | 53
14 | CN[C@@H](CC(C)C)C(=O)N[C@@H](CC(C)C)C(=O)N[C@H](Cc1cccc(C)c1)C(=O)N(C)[C@@H](CC(C)C)C(=O)N[C@@H](CC(C)C)C(=O)O [H-N(Me)Leu-Leu-D-Phe(3-Me)-N(Me)Leu-Leu-OH] | 53
15 | CN[C@@H](CC(C)C)C(=O)N[C@@H](CC(C)C)C(=O)N[C@H](Cc1ccc(Br)cc1)C(=O)N(C)[C@@H](CC(C)C)C(=O)N[C@@H](CC(C)C)C(=O)O [H-N(Me)Leu-Leu-D-Phe(4-Br)-N(Me)Leu-Leu-OH] | 55
16 | CN[C@@H](CC(C)C)C(=O)N[C@@H](CC(C)C)C(=O)N[C@H](Cc1ccc(Cl)cc1)C(=O)N(C)[C@@H](CC(C)C)C(=O)N[C@@H](CC(C)C)C(=O)O [H-N(Me)Leu-Leu-D-Phe(4-Cl)-N(Me)Leu-Leu-OH] | 55
17 | CN[C@@H](CC(C)C)C(=O)N[C@@H](CC(C)C)C(=O)N[C@H](Cc1ccc(C)cc1)C(=O)N(C)[C@@H](CC(C)C)C(=O)N[C@@H](CC(C)C)C(=O)O [H-N(Me)Leu-Leu-D-Phe(4-Me)-N(Me)Leu-Leu-OH] | 50
18 | CN[C@@H](CC(C)C)C(=O)N[C@@H](CC(C)C)C(=O)N[C@H](Cc1ccccc1)C(=O)N(C)[C@@H](CC(C)C)C(=O)N[C@@H](CC(C)C)C(=O)O [H-N(Me)Leu-Leu-D-Phe-N(Me)Leu-Leu-OH] | 51
19 | CN[C@@H](CC(C)C)C(=O)N[C@@H](CC(C)C)C(=O)N[C@@H](C(=O)N(C)[C@@H](CC(C)C)C(=O)N[C@@H](CC(C)C)C(=O)O)c1ccccc1 [H-N(Me)Leu-Leu-D-Phg-N(Me)Leu-Leu-OH] | 51
20 | CN[C@@H](CC(C)C)C(=O)N[C@@H](CC(C)C)C(=O)N1CCC[C@@H]1C(=O)N(C)[C@@H](CC(C)C)C(=O)N[C@@H](CC(C)C)C(=O)O [H-N(Me)Leu-Leu-D-Pro-N(Me)Leu-Leu-OH] | 51
21 | CN[C@@H](CC(C)C)C(=O)N[C@@H](CC(C)C)C(=O)N[C@H](COC)C(=O)N(C)[C@@H](CC(C)C)C(=O)N[C@@H](CC(C)C)C(=O)O [H-N(Me)Leu-Leu-D-Ser(OMe)-N(Me)Leu-Leu-OH] | 52
22 | CN[C@@H](CC(C)C)C(=O)N[C@@H](CC(C)C)C(=O)N[C@H](Cc1ccc(OC)cc1)C(=O)N(C)[C@@H](CC(C)C)C(=O)N[C@@H](CC(C)C)C(=O)O [H-N(Me)Leu-Leu-D-Tyr(OMe)-N(Me)Leu-Leu-OH] | 52
23 | CN[C@@H](CC(C)C)C(=O)N[C@@H](CC(C)C)C(=O)N[C@@H](C(=O)N(C)[C@@H](CC(C)C)C(=O)N[C@@H](CC(C)C)C(=O)O)C(C)C [H-N(Me)Leu-Leu-D-Val-N(Me)Leu-Leu-OH] | 50
24 | CN[C@@H](CC(C)C)C(=O)N[C@@H](CC(C)C)C(=O)NCC(=O)N(C)[C@@H](CC(C)C)C(=O)N[C@@H](CC(C)C)C(=O)O [H-N(Me)Leu-Leu-Gly-N(Me)Leu-Leu-OH] | 51

Experiment: not given
Conditions: amide bond; 15-membered ring; PyBOP/DMAP; MeCN; 4.3 mM

Row | Compound | ring closure, isolated yield
25 | Cyclo(Me-D-Leu-D-Leu-D-Leu-Me-D-Leu-D-Leu) | 48%
26 | Cyclo(Me-D-Leu-D-Leu-L-Leu-Me-D-Leu-D-Leu) | 50%
27 | Cyclo(Me-D-Leu-L-Leu-D-Leu-Me-D-Leu-L-Leu) | 45%
28 | Cyclo(Me-D-Leu-L-Leu-L-Leu-Me-D-Leu-L-Leu) | 48%
29 | Cyclo(Me-L-Leu-D-Leu-D-Leu-Me-L-Leu-D-Leu) | 54%
30 | Cyclo(Me-L-Leu-D-Leu-L-Leu-Me-L-Leu-D-Leu) | 45%
31 | Cyclo(Me-L-Leu-L-Leu-2-Me-D-Phe-Me-L-Leu-L-Leu) | 53%
32 | Cyclo(Me-L-Leu-L-Leu-3-Flu-D-Phe-Me-L-Leu-L-Leu) | 53%
33 | Cyclo(Me-L-Leu-L-Leu-3-Me-D-Phe-Me-L-Leu-L-Leu) | 53% and 50%
34 | Cyclo(Me-L-Leu-L-Leu-4-Bro-D-Phe-Me-L-Leu-L-Leu) | 55%
35 | Cyclo(Me-L-Leu-L-Leu-4-Chl-D-Phe-Me-L-Leu-L-Leu) | 55%
36 | Cyclo(Me-L-Leu-L-Leu-D-Ala-Me-L-Leu-L-Leu) | 49%
37 | Cyclo(Me-L-Leu-L-Leu-D-Leu-Me-L-Leu-L-Leu) | 45%
38 | Cyclo(Me-L-Leu-L-Leu-D-Met-Me-L-Leu-L-Leu) | 52%
39 | Cyclo(Me-L-Leu-L-Leu-D-Phe-Me-L-Leu-L-Leu) | 51%
40 | Cyclo(Me-L-Leu-L-Leu-D-Pro-Me-L-Leu-L-Leu) | 51%
41 | Cyclo(Me-L-Leu-L-Leu-D-Val-Me-L-Leu-L-Leu) | 50%
42 | Cyclo(Me-L-Leu-L-Leu-D-cyclohexyl-Gly-Me-L-Leu-L-Leu) | 51%
43 | Cyclo(Me-L-Leu-L-Leu-D-phenyl-Gly-Me-L-Leu-L-Leu) | 51%
44 | Cyclo(Me-L-Leu-L-Leu-Gly-Me-L-Leu-L-Leu) | 51%
45 | Cyclo(Me-L-Leu-L-Leu-Methylester-D-Asp-Me-L-Leu-L-Leu) | 52%
46 | Cyclo(Me-L-Leu-L-Leu-O-Me-D-Ser-Me-L-Leu-L-Leu) | 52%
47 | Cyclo(Me-L-Leu-L-Leu-O-Tyr-Me-L-Leu-L-Leu) | 52%
